Test results taken from patent US4080471A, “Use of substituted isopropylaminopropanols for inducing inotropic effects of the human heart” (priority 1976, dated 1978).
“Also recorded” adds a separate entry of the source.

Tests used:
heart [1] = assay: Repetitive ventricular response (RVR) / spontaneous arrhythmia in the anesthetized dog; format: in vivo
Text: (§1) Effects of Compound I and Ouabain On the Heart Contractility and Rhythmicity of the Anesthetized Dog
(§2) The object of the test was to compare compound I and oubain administered alone and in combination with each other to study the inotropic effect (maximum dP/dt in the left ventricle) and a possibly arrhythmic effect. The latter included an investigation of the ability of the compounds to cause repetitive ventricular response (RVR) when the heart was electrically stimulated via an electrode on the ventricle at the electrically vulnerable phase at the end of the T-wave. Klein et al. (M. Klein, N. S. Nejad, B. Lown, F. Hagemeijer and I. Blair, Circulation Research, 29, 635 (1971)) have shown that digitalis caused RVR at a dose which was about 70% of the dose giving spontaneous ventricular arrhythmias.
(§3) The dog was anesthetized with Mebumal® 30 mg/kg bodyweight i.v. Artificial respiration was applied. The sinus-node was electrocoagulated and the heart frequency was kept constant at 180 beats/minute in each test by electrical pacing of the auricle. Mean arterial blood pressure was registered from the carotis artery. ECG was registered during the test. Further, the pressure in the left ventricle was registered via a catheter inserted through the apex and connected to a pressure transducer. The intraventricular pressure curve was derivated to obtain maximum dP/dt which is a measure of the contractile force of the heart.
(§4) The test was started with a series of control registrations, whereupon the compounds were administered 3 times by infusion during five minutes and with an interval of 50 minutes between each infusion.
(§5) In the experiment with compound I only, the compound was administered in two doses of 10 μg/kg bodyweight and then one dose of 20 μg/kg bodyweight. Ouabain was given in 3 consecutive doses of 20 μg/kg bodyweight. In the combination test ouabain was first given in a dose of 20 μg/kg bodyweight followed by two doses of compound I of 10 and 20 μg/kg bodyweight, respectively.

cardiac beta-receptors = assay: Chronotropic (heart frequency) and inotropic (maximum dP/dt) effects in reserpinized, anesthetized, vagotomized cat; format: in vivo
Experimental: Chronotropic (Heart Frequency) and Inotropic (Contractile Force) Effects
The mean blood pressure was regulated with an adjustable clamp around the descending aorta. All registrations were than able to be done at a constant pressure in aorta (afterload). The compounds were administered by infusion intravenously in increasing doses. The dose-response curves as regards the heart frequency and maximum dP/dt were constructed, from which the ED50 -values were estimated.
Maximum dP/dt is a measure of the contractile force of the heart, i.e. inotropy, but is influenced by changes in the heart frequency, filling pressure (preload) and aortic blood pressure (afterload). In this test, a comparison between inotropic and chronotropic effects can be done at the same heart frequency. Further, the aortic blood pressure is kept constant.

heart [2] = assay: Ventricular arrhythmia in dogs after two-stage ligation of the left anterior coronary artery (third day post infarction); format: in vivo, dog
Experimental: Harris, A. S. Delayed Development of Ventricular Ectopic Rhythms following Coronary Occlusion, Cir. l, p 1318, (1950) described a method of two-stage ligation of the left anterior coronary artery in the dog. This method produces a multifocal ventricular arrhythmia that generally remains persistent on the first post ligation day (day 1-24 hours post infarct). The arrhythmia slowly disappears, and by the third post-ligation day the animal has essentially a normal sinus rhythm.
Maling, H. M. and Moran, N. C., Ventricular Arrhythmias Induced by Sympathominetic Amines in Unanesthetized Dogs Following Coronary Artery Occlussion, Cir.
METHODS, MATERIALS AND EXPERIMENTAL DESIGN
Seventeen adult female beagle dogs were used. Their ages ranged from one to three years. These animals were divided into two groups.
The first group consisted of 12 dogs and served as a control group. All animals were subjected to a two-stage ligation of the left anterior coronary artery. On the first post operative day these twelve animals were given various experimental antiarrhythmic agents as part of a routine testing procedure. It should be noted that, due to the nature of these agents, there would be no test drug or only trace amounts of test drug in the blood on day 3, and these amounts would cause little or no change on the outcome of a third day test. It should also be noted that all twelve of these animals has at least 85% ventricular ectopic beats on the morning after surgery in order to be accepted for testing.
On the third day post infarction the dogs were suspended in a standing position in a canvas sling. No anesthesia or sedation was used. ECGs were recorded as well as blood pressure. After a control period, an infusion of 20 μg/kg min. of 1-norepinephrine was begun using a Harvard infusion/withdrawal pump. This infusion lasted 120 minutes.
These five animals were all subjected to a two stage ligation of the anterior descending coronary artery. On day 1 and day 2 each dog was suspended in a canvas sling in the standing position and ECG, blood pressure, and other physiologic measurements were taken. […]

[3] = target: T1, beta-receptors of the heart (Felis catus, UniProt Q9TST6); assay: Beta-adrenergic (chronotropic, heart frequency) effects on anesthetized cat pretreated with reserpine; format: in vivo
T1 construct: Heart frequency was registered with a cardiotachometer triggered by the ECG; from tissue; host or cells: heart of the anaesthetized cat in vivo (reserpine-pretreated, vagotomized)
Experimental: (§6) Chronotropic (heart frequency) and vasodilatating effects:
(§7) When the cats had been anaesthetized with Mebumal® 30 mg/kg bodyweight i.p., an artificial air respiration was started. The two vagus nerves were cut and the blood passing through a femoral artery was fed via a catheter and a pump back to the distal part of the vessel. Parallelly, a pressure transducer was connected by which the perfusion pressure was registered. At a perfusion with a constant flow, the perfusion pressure is directly proportional to the peripheral resistance of the vascular bed of the hind limb. Blood circulation in the foot was interrupted with a ligature. Heart frequency was registered with a cardiotachometer triggered by the ECG. The substances were administered intravenously in increasing doses and the dose-response curves of the heart frequency and the vasodilatation were constructed.
(§8) Further, the dose ratios (ED50 for vasodilatation/ED50 for heart frequency) are calculated. A dose ratio >1 indicates a heart selective effect.

[4] = tested on: beta-receptors of the heart; assay: as above; format: in vivo; conditions: dose ratio >1 indicates a heart selective effect
Experimental: as §6, §7, §8

heart [5] = assay: Effect on heart contractility (maximum dP/dt) of the anesthetized dog; format: in vivo
Text: as §1, §2, §3, §4, §5

[6] = target: T1, beta-receptors of the heart; assay: Heart frequency increase before and after beta-blockade with Inderal; format: in vivo, cat; conditions: 0.01 mg/kg bodyweight i.v.
Experimental: as §7

[7] = 20 minutes after administration, ouabain versus compound I
[8] = anesthetized dog, i.v. infusion

T1 sequence (Q9TST6 whole entry): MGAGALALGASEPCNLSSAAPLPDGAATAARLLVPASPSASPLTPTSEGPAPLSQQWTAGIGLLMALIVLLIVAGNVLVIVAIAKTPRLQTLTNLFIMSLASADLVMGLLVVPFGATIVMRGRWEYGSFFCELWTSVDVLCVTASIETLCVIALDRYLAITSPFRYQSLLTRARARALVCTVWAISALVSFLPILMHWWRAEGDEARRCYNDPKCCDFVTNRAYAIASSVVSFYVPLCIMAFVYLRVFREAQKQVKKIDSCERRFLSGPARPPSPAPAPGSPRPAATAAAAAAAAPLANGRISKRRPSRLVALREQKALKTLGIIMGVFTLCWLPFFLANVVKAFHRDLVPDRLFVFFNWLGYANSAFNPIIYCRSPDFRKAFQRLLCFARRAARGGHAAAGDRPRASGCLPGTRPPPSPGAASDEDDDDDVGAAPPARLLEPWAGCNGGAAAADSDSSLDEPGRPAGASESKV

For `CC(C)NCC(O)COc1ccc(O)cc1` (stereo not drawn) [Compound I, 1-isopropylamino-3-(p-hydroxyphenoxy)-propanol-2], the “RVR or spontaneous arrhythmia (in words)” value (heart [1]; compound I 10 and 20 μg/kg bodyweight) was “did not in any case cause RVR or spontaneous arrhythmia”, the “arrhythmogenic effect in relation to inotropic effect, versus ouabain (in words)” value (heart [1]; dog, in vivo) was “evidently less arrhythmogenic effect than ouabain” and the “auricle pressure (filling pressure)” value (cardiac beta-receptors; cat, i.v. infusion) was “decreased”. For the same molecule, the “affinity to cardiac beta-receptors giving inotropic versus chronotropic effects (in words)” value (cardiac beta-receptors; in vivo) was “higher affinity to cardiac beta-receptors, which give inotropic effects, than to beta-receptors in the sinus-node region, which give chronotropic effects”, the “ectopic activity in postdrug observation period” value (heart [2]; 60 minutes after compound I infusion) was “essentially no ectopic activity” and the “arrhythmogenic effect (in words)” value (heart [2]; compound I 1.0 mg/kg/min i.v. for twenty minutes, day 3 post infarct) was “not arrhythmogenic; also recorded: the few ectopic beats seen during the predrug control were slightly suppressed; also recorded: lacks arrhythmogenic properties”. For the same molecule, the ED50 ([3]; cat, iv, read-out: ED50 Heart Frequency) was 6 µg/kg, the “potency relative to isoprenaline, chronotropic effect” value ([3]; isoprenaline = 1, cat i.v.) was “about 1/100” and the “Selectivity: ED50 Vasodilatation / ED50 Heart Frequency” value [4] was over 100. For the same molecule, the “increase of aortic blood pressure” value (heart [5]; 20 minutes after administration) was “no effect”, the “doses giving approximately the same level of maximum dP/dt (lower pair)” value (heart [5]; [7]) was “about 10 μg/kg bodyweight” and the “doses giving corresponding effect on maximum dP/dt (higher pair)” value (heart [5]; [7]) was 20 μg/kg bodyweight. For the same molecule, the “effect on maximum dP/dt (in words)” value (heart [5]; [8]) was “increased the maximum dP/dt”, the “onset of effect on maximum dP/dt” value (heart [5]; [8]) was “immediate” and the “reduction of effect on maximum dP/dt after 50 minutes” value (heart [5]; [8]) was “almost completely reduced after 50 minutes”. For the same molecule, the “ventricular contractility compared with ouabain (in words)” value (heart [5]; at same increase of maximum dP/dt) was “increased the ventricular contractility a little more than ouabain”, the “increase of heart frequency, given after Inderal” value ([6]; after 0.2 mg/kg i.v. Inderal) was 10 beats/minute and the “increase of heart frequency, given before Inderal” value ([6]; before Inderal, average) was 60 beats/minute.
